Measurements published in a melting point compilation (Tetko et al.; mined from patent text by program, amines drawn as free bases though some values may be those of a salt).

Point of comparison: `COC(=O)C1=C(C)Nc2nc(N3CCOCC3)nc(N3CCOCC3)c2C1c1cccc(Cl)c1Cl` (centres undefined), melting point 188 °C. Against it:
- O=C(Cn1cnc(-c2ccc(OCc3ccccc3)cc2)n1)c1ccc(F)cc1F — lower, 142 to 143 °C
- Cc1cc2c(c(C)c1NC(=O)CC(C)(C)C)CC(C)(C)O2 — lower, 181 to 182 °C
- CC(C(=O)O)c1ccc(-c2ccc(O)cc2)c(F)c1 (centres undefined) — higher, 195 to 197 °C
- CCOC(=O)C(C)c1ccc(-c2ccc(F)cc2F)c(O)c1 (centres undefined) — lower, 72 to 73 °C
- Cc1c(NC(=O)c2ccc(OC[C@@H]3CCCO3)cc2F)ccc2cc(CNCC(C)(C)O)cnc12 — lower, 167 to 168 °C
- CCN(CC)C(=O)c1cccs1 — lower, 50 to 52 °C
- O=c1[nH][nH]c(=O)n1-c1cc(Cl)cc(Cl)c1 — higher, 260 °C
- S=[PH](c1ccccc1)c1ccccc1 — lower, 134 to 135 °C
- COc1cc(Nc2c(C#N)cnc3cc(-c4csc(CN5CCN(C)CC5)c4)sc23)c(Cl)cc1Cl — higher, 224 to 226 °C
- CC=CC(=O)Nc1cc(C(C)(C)C)c(O)c(C(C)(C)C)c1 — higher, 211 to 214 °C
- CC1=C(n2ccccc2=O)c2cc([N+](=O)[O-])ccc2OC1(C)C — higher, 200 °C
- O=[N+]([O-])c1ccccc1-c1ccno1 — lower, 66 to 69 °C
- Cc1cc(-c2ncn3c(C(F)(F)F)cc(-c4ccc(C(F)(F)F)c(C)c4)nc23)ccn1 — higher, 243 °C
- Sc1nc(-c2ccc(Cl)c(Cl)c2)c(-c2cccs2)[nH]1 — higher, 263 to 265 °C
- CCNc1ccc2nnc(-c3ncc([N+](=O)[O-])n3C)n2n1 — higher, 258 to 263 °C
- CCOc1ccc(CC(CN2CC(=O)OC(=O)C2)N(CCN2CC(=O)OC(=O)C2)CC(=O)O)cc1 (centres undefined) — lower, 172 to 174 °C
- COc1nc(CCc2cc(Br)ccc2OCc2ccccc2)ccc1C(=O)O — lower, 141 to 143 °C
- FC(F)(F)c1cccc(CCc2nnc(-c3ccc4ncsc4c3)o2)c1 — lower, 126 to 127 °C
- CCOc1ccc(CCCOc2c(CC(=O)O)cccc2OC)c(Oc2ccc(Cl)cc2Cl)n1 — lower, 89 to 91 °C
- CSc1noc(C2CC2)c1C(=O)c1ccc(C(F)(F)F)cc1S(C)(=O)=O — lower, 145 to 146 °C
- CS(=O)(=O)c1ncc(-c2ccccc2)c(C(F)(F)F)n1 — lower, 110 to 112 °C
- O=C(O)c1ccc(Oc2ccc(Oc3ccc(C(=O)O)c(C(=O)O)c3)c(P(=O)(c3ccccc3)c3ccccc3)c2)cc1C(=O)O — higher, 212 to 218 °C
- Cc1oc2ccc(O)cc2c(=O)c1Cc1cccc(NS(=O)(=O)C(F)(F)F)c1 — higher, 232 to 234 °C
- O=C(O)C1Cc2ccccc2CN1C(=O)c1ccc(Cl)cc1 (centres undefined) — lower, 77 to 79 °C
- NC(=O)c1cccc(-c2cccc3oc(Cc4cccc(C(F)(F)F)c4)cc23)c1 — lower, 159 to 160 °C
- CC(C)(C)CN1C(=O)C(=O)N(c2ccc(C#N)cc2)C1=S — lower, 128 to 129 °C
- CC(=O)OC1=CC(C)C2(C)C(=C1)CCC1C3CCC(=O)C3(C)CCC12 (centres undefined) — lower, 104 to 107 °C
- CCOC(=O)C1=CCCCC1S(=O)(=O)Nn1cccc1-c1ccccc1 (centres undefined) — lower, 160 to 161 °C
- O=C1COc2ccc(CO)cc2N1 — lower, 186 to 187 °C
- O=C(Cc1ccccc1)c1cccnc1 — lower, 61 to 62 °C
- Cc1ccc(N2C(=O)C(O)=C(C(=O)c3ccc(C(C)(C)C)cc3)C2c2ccc(OC(F)(F)F)cc2)nn1 (centres undefined) — higher, 262 to 265 °C
- O=C(OC1C2CN(Cc3ccccc3)CC1CN(C(=O)c1ccc(Cl)cc1)C2)c1ccccc1 (centres undefined) — lower, 165 °C
- CCOc1ccc(-c2ccc3c(c2)C=C(C(=O)Nc2ccc(CO)cc2)CCO3)cc1 — higher, 208 to 210 °C
- COc1ccc(-c2nnc3c4ccccc4c(CC#N)nn23)cc1 — higher, 252 to 254 °C
- Cc1cc(=O)c(-c2ccc(Oc3ccc(Cl)cc3)cc2)c(C)n1O — higher, 232 to 236 °C
- COc1cc2c(c3c1OC(C)(C)C3)C(c1cccc(C(N)=O)c1)=NCC2(C)C — higher, 191 to 193 °C
- c1cc(C2CCOCC2)ccn1 — lower, 60 to 62 °C
- CC(=O)N1c2ccccc2CC1c1cc(Cl)ccc1NC(=O)C(C)(C)C (centres undefined) — lower, 131 to 134 °C
- C=Cc1cccc(N)c1 — lower, 80 °C
- CC1(C)CCC(C)(C)c2cc(-c3cc(-c4ccc(C(=O)O)cc4)ccc3OCCNC3CC3)ccc21 — higher, 233 °C
- CCNC(=O)N(C)C(=O)Nc1ccccc1 — lower, 80.5 to 81.5 °C
- CC(C)C[C@H]1C[C@]2(O)C[C@@H](OC2=O)[C@@H]1OC(=O)c1ccccc1 — lower, 71 to 72 °C
- O=C(O)CN1C(=O)C(=CC2CCCCC2)SC1=S — higher, 191 to 193 °C
- CC1(C)OCC(CCn2cnc3c(N)nc(N)nc32)CO1 — higher, 202 to 204 °C
- O=C(O)c1cccc(-c2cc(-c3ccc(F)cc3)[nH]n2)c1 — higher, 270 to 272 °C
- COc1ccc(OC)c(Cc2ccc3[nH]c(=S)[nH]c3c2)c1 — higher, 210 to 211 °C
- CCOC(=O)c1cc(NCc2ccccc2)c(Nc2cccc(OC)c2)c(S(N)(=O)=O)c1 — lower, 149 to 152 °C
- COC(=O)CCC(=O)OCc1cc(CCCCCOc2c(Cl)cc(C3=NCCO3)cc2Cl)on1 — lower, 39 to 41 °C
- CCCCNc1ccc2n[nH]c(=O)n2n1 — higher, 259 to 261 °C
- N#Cc1ccc(OCc2ccc3ncoc3c2)cc1OC(C(=O)O)c1ccccc1Cl (racemic) — lower, 172 to 178 °C
- CCCCCCCCCCSc1ccc(C(=O)O)cc1 — lower, 108 to 109 °C
- Cc1onc(-c2ccccc2)c1-c1cc2ccccc2[nH]1 — lower, 145 to 146 °C
- COC(=O)C1(C)Cc2c(OC)ccc(OC)c2CO1 (centres undefined) — lower, 73 to 74.5 °C
- CC1(C)N=C(CCO)C2=C(N1)N(Cc1ccccc1)C(=O)C(N)O2 (centres undefined) — lower, 124 to 126 °C
- O=C(c1ccccc1)c1ccc2nccnc2c1 — lower, 120 °C
- COc1ccc(-c2nc(N3CCOCC3)c3sc(CN(C)c4ncc(C(=O)NO)cn4)cc3n2)cn1 — lower, 177 to 180 °C
- Cc1cc2[nH]c(=O)c3cnc(Cl)cc3n2n1 — higher, > 300 °C
- Oc1cccc(NCCc2ccccc2)n1 — lower, 97 to 99 °C
- Cc1ccc(N2C(=O)C(O)=C(C(=O)c3ccc(OC(F)(F)F)cc3)C2c2ccc(Cn3nccn3)cc2)nn1 (centres undefined) — higher, 277 °C
- CC(=O)NC(Cc1csc2ccccc12)C(=O)C=Cc1cc(C(F)(F)F)cc(C(F)(F)F)c1 (centres undefined) — lower, 172 to 173 °C
- COC1C(OC(=O)c2ccccc2)C(COC(=O)c2ccccc2)OC1n1ccc(=O)[nH]c1=O (centres undefined) — lower, 132 to 134 °C
- Cc1c(C=CC=O)c2c(c(C)c1OCc1ccccc1)CC(C)(C)O2 — lower, 108 to 109 °C
- O=C(O)CN(c1ccccc1)S(=O)(=O)c1ccccc1 — lower, 166 to 167 °C
- COc1ccc(C=CC(=O)C=Cc2ccc(OC)cc2OC)c(OC)c1 — lower, 138 to 140 °C
- CCOCCn1c(NC2CCN(CCC3(c4ccc(C)c(C)c4)CCN(C(=O)c4cc(OC)c(OC)c(OC)c4)C3)CC2)nc2ccccc21 (centres undefined) — lower, 108 to 119 °C
- Cn1c(=O)c(NC(=O)Nc2ccc(F)cc2F)c(-c2ccccc2)c2cc(Cl)ccc21 — higher, 204 to 206 °C
- COc1cc2c(cc1OC)C(=Cc1ccccc1[N+](=O)[O-])C(=O)CC2 — lower, 63 to 64 °C
- CCCCc1c(OC)cc(C(=O)O)nc1Cl — lower, 104 to 106 °C
- COC(=O)c1ccc(-c2nn(Cc3ccccc3)c3ccc(N)cc23)o1 — higher, 195 to 196 °C
- C#CCN(C(=O)c1ccccc1C(F)(F)F)S(=O)(=O)c1cccc(C)c1 — lower, 81 to 85 °C
- COc1c(F)cc(-c2cncc(OC3SCC(OC(C)=O)C(OC(C)=O)C3OC(C)=O)c2)cc1F (centres undefined) — higher, 203 °C
- CC(O)Cn1cnc2c1c(=O)n(CC1CCCC1)c(=O)n2CC1CCCC1 (centres undefined) — lower, 139 °C
- O=C(N[C@H]1CC[C@H](CCN2CCC(c3cccc4c3CCO4)CC2)CC1)c1ccccc1 — higher, 220 °C
- BrCCCCn1c2ccccc2c2ccccc21 — lower, 102 to 104 °C
- CCOC(=O)C(=O)Nc1cccc(NC(=O)C(=O)OCC)n1 — lower, 179 to 180 °C
- CC1CCN(c2c(C#N)c3c(c4c2Cc2ccccc2-4)-c2ccccc2C3)CC1 — lower, 166 to 168 °C
- Cc1nc(NC(=O)c2cnn3c(C4CC4)cc(-c4ccc(Cl)cc4)nc23)sc1S(=O)(=O)NC(C)(C)CO — higher, 293 to 294 °C
- CC(=O)N1CCN=C1Nc1cc(C)nn1Cc1ccccc1 — lower, 148 to 149 °C
- OCc1ccc(OCc2ccccc2)cn1 — lower, 66 to 68 °C
- C[C@H]1[C@@H](C#N)CCN1c1ccc(C#N)c2ccccc12 — lower, 143 to 145 °C
- C(=C(c1ccccc1)c1ccccc1)c1ccc2c(c1)Sc1cc(C=C(c3ccccc3)c3ccccc3)ccc1N2c1ccccc1 — higher, 232 to 237 °C
- CC(C)(C)NS(=O)(=O)c1ccsc1C1=CC(=O)CCC1 — lower, 157 to 158 °C
- NC(=O)Oc1ccccc1-c1nc2ccc(OCc3c(F)cccc3Cl)cc2s1 — higher, 227 °C
- Cc1cc2nc(S(=O)(=O)CC(F)(F)F)[nH]c2cc1F — lower, 164 to 166 °C
- Cc1ncsc1C(O)c1cccc(O)c1 (centres undefined) — lower, 181 to 184 °C
- CC(C)(C)c1cc(Cn2nc(-c3ccccc3)oc2=S)cc(C(C)(C)C)c1O — lower, 166 °C
- COC(=O)c1cc(Nc2ccccc2)c(Nc2ccc(OC)cc2)cc1C(=O)OC — lower, 122 to 124 °C
- Cc1cc(Cl)ccc1Br — lower, 91 to 95 °C
- CC(c1ccc2c(c1)CCC(=O)N2)n1ccnc1 (centres undefined) — lower, 185 °C
- Cc1c(-c2ccccc2)[nH]c(=O)n1C1CCN(Cc2cccc(Br)c2)CC1 — higher, 263 to 265 °C
- COc1cc(N2CCN(Cc3ccccc3)CC2)c2nccc(C)c2c1 — lower, 154 to 155 °C
- COc1ccc(CNC(=O)c2cc3c(=O)n(CC#Cc4ccccc4)c(=O)n(C)c3s2)cc1 — lower, 168 to 171 °C
- CC(C)(C)OC(=O)n1c2ccccc2c(=O)n1Cc1cccc(N)c1 — lower, 155 °C
- O=C(O)C(O)c1cccs1 (centres undefined) — lower, 75 °C
- O=C(C=Cc1c(Cl)cccc1Cl)c1c(Cl)cccc1Cl — lower, 124 to 125 °C
- COc1ccc(C(O)(c2ccc(OC)cc2)C2CCNCC2)cc1 — lower, 153 to 155 °C
- CSC[C@H]1NC(=O)[C@@H](Cc2ccccc2)NC1=O — higher, 246 to 247 °C
- C=CCc1c(C)cc(C)cc1O — lower, 51 °C
